Reference: PMC10537538, “Preclinical Investigation of a Lipoglycopeptide Dry Powder Inhalation Therapy for the Treatment of Pulmonary MRSA Infection” (Pharmaceutics, 2023)
Where a name gives a salt, the structure may show the parent alone. Read-outs that look alike come from different tables or passages of the source. One block for each compound: values may come before it.

Columns and labels:
[1] = cited from earlier work
[2] = test system: MSSA ATCC 29213; assay: MIC by CLSI broth microdilution, MSSA; assay type: cell-based; settings: Staphylococcus aureus, read-out: MSSA MIC
Description: (§1) In Vitro Susceptibility. Clinical and Laboratory Standards Institute (CLSI) guidelines were followed for the determination of the minimum inhibitory concentration (MIC), using cation-adjusted Mueller Hinton broth microdilution at a starting inoculum level of 5 × 10^5 colony forming units (CFUs) per mL [24, 25]. MIC was read by optical density on a BioTek Synergy H1 plate reader (BioTek, Winooski, VT, USA) at 595 nm. Strains used were MRSA ATCC BAA-1556 (USA300, SCCmecIV, pvl^+) and MSSA ATCC 29213 (American Type Culture Collection, Manassas, VA, USA). MIC data are reported as a range to reflect the fact that the value is determined using step dilution.

[3] = test system: MRSA ATCC BAA-1556 (USA300); assay: MIC by CLSI broth microdilution, MRSA; assay type: cell-based, Staphylococcus aureus; settings: for MIC: Staphylococcus aureus, read-out: MRSA MIC
Description: as §1

SMILES: CCCCCCCCCCNCCN[C@@]1(C)C[C@H](O[C@H]2[C@H](Oc3c4cc5cc3Oc3ccc(cc3Cl)[C@@H](O)[C@@H](NC(=O)[C@@H](CC(C)C)NC)C(=O)N[C@@H](CC(N)=O)C(=O)N[C@H]5C(=O)N[C@H]3C(=O)N[C@H](C(=O)N[C@H](C(=O)O)c5cc(O)c(CNCP(=O)(O)O)c(O)c5-c5cc3ccc5O)[C@H](O)c3ccc(c(Cl)c3)O4)O[C@H](CO)[C@@H](O)[C@@H]2O)O[C@@H](C)[C@H]1O [telavancin, reference compound]
lung half-life, nebulized form ([1]; rats, inhalation of nebulized preparation): ca. 21 days

SMILES: CN[C@H](CC(C)C)C(=O)N[C@H]1C(=O)N[C@@H](CC(N)=O)C(=O)N[C@H]2C(=O)N[C@H]3C(=O)N[C@H](C(=O)N[C@H](C(=O)O)c4cc(O)cc(O)c4-c4cc3ccc4O)[C@H](O)c3ccc(c(Cl)c3)Oc3cc2cc(c3O[C@@H]2O[C@H](CO)[C@@H](O)[C@H](O)[C@H]2O[C@H]2C[C@](C)(N)[C@H](O)[C@H](C)O2)Oc2ccc(cc2Cl)[C@H]1O [Vancomycin, Vancomycin HCl, reference compound]
MIC [2]: 0.5 to 1 µg/mL | MIC [3]: 0.5 to 2 µg/mL

MIC ([2]; ATCC 29213, CLSI): 0.031 to 0.063 µg/mL | MIC ([3]; ATCC BAA-1556 (USA300), CLSI): 0.031 to 0.063 µg/mL | pH needed to dissolve drug substance: > 9
SMILES: CCCCCCCCCCNC(=O)CN[C@@]1(C)C[C@H](O[C@H]2[C@H](Oc3c4cc5cc3Oc3ccc(cc3Cl)[C@@H](O)[C@@H](NC(=O)[C@@H](CC(C)C)NC)C(=O)N[C@@H](CC(N)=O)C(=O)N[C@H]5C(=O)N[C@H]3C(=O)N[C@H](C(=O)N[C@H](C(=O)O)c5cc(O)cc(O)c5-c5cc3ccc5O)[C@H](O)c3ccc(c(Cl)c3)O4)O[C@H](CO)[C@@H](O)[C@@H]2O)O[C@@H](C)[C@H]1O [RV94, N^van-2-amino-N-decylacetamide vancomycin]
potency relative to vancomycin (fold more potent) ([3]; MIC, MSSA and MRSA isolates): ca. 15 fold | lung half-life, nebulized form ([1]; rat, in vivo, inhaled or intranasal): approximately 4.5 days
